Results reported in the NIST ThermoML archive (doi:10.1016/j.jct.2018.11.025).
± gives the expanded uncertainty stated by the source.

Details: for Normal melting temperature: DTA

c1ccc2c(c1)[nH]c1ccccc12 [9H-carbazole]
Normal melting temperature (Crystal): 243.89 ± 0.7 °C

c1ccc2c(c1)ccc1ccccc12 [phenanthrene]
Normal melting temperature (Crystal 1): 98.56 ± 0.7 °C
Triple point temperature (Crystal 2, DSC): 339.52 ± 0.93 K
